Where two headings read alike, the source gives them in different places. Where a SMILES comes first, the peptide text is derived from it. Where no end group is shown, it is not given here.
Columns and labels:
[1] = tested on: human neutrophil elastase (HNE); assay: HNE inhibition by peptide-loaded electrospun fibers; format: biochemical; settings: AAPV from PCL electrospun fibers, PBS, 37 °C
HNE = settings: AAPV from co-axial wet-spun microfibers; cited from earlier work
Method: During the first 6 h of incubation, nearly 10% of HNE was inhibited by the peptide released from the PCL fibers. This is consistent with the data from Figure 5 since, at this point, >50% of the peptide molecules have been released. In fact, in the absence of PEG, HNE inhibition reached its maximum at this stage, maintaining the levels of enzyme activity in a constant manner until the 24 h period. […] However, considering its hydrophobic nature and affinity towards PCL, it i ...

bacteria = settings: effectiveness limited to concentrations over this; cited from earlier work
Description: Despite its efficacy, the widespread pharmaceutical application of peptides faces obstacles, including limited stability in physiological settings and susceptibility to environmental factors. However, AAPV’s overall hydrophilicity (despite the presence of hydrophobic domains) tends to reduce its bioavailability and cellular tissue permeability. The attachment of hydrophobic carriers/molecules can overcome these limitations. Tryptophan (W) is an aromatic hydrophobic amino acid, which has been associated with the activation of antibacterial properties (disturbance of bacterial membra ...

S. aureus = settings: loaded at the core of co-axial microfibers; cited from earlier work
Method: From the very first moments of incubation, PEG-containing fibers were the ones reporting the highest bacterial inhibitions, a minimum of ≈30% against S. aureus and ≈40% against E. coli. […] In general, the highest ratings for peptide-induced inhibition (in many instances potentiated by PEG) were ...

[2] = tested on: human neutrophil elastase (HNE; elastase from human leukocytes); settings: 1 h, 37 °C, 405 nm, n = 3, cited from earlier work
Method: Table 1 Inhibition of HNE activity by AAPV [8] and WAAPV at varying concentrations (n = 3). | column: HNE Inhibition (%) / AAPV || AAPV presented its maximum inhibitory capacity at a concentration of 50 μg/mL, which is in accordance with previous research conducted by our team. According to Namjoshi et al., the ability of HNE to digest substrates decreases with increasing inhibitor concentrations. […] Suc ...

[3] = cited from earlier work
Description: Static contact angle measurements are a conventional method to determine the wettability of surfaces. This method involves assessing the angle formed between the solid surface, the liquid droplet, and the vapor phase at the three-phase contact point. […] Electrospun fibers unlo ...

[4] = format: physicochemical
Method: Thermal responses of the fibers were assessed by a thermogravimetric analysis (TGA). Weight loss was monitored as the temperature increased from 25 to 600 °C at a heating rate of 10 °C/min under a dynamic nitrogen atmosphere with a flow rate of 200 mL/min, using an STA 7200 instrument (Hitachi®, Fukuoka, Japan) and aluminum pans. Results were plotted as the percentage of weight loss vs. temperature. Water contact angles were determined using an OCA 200 goniometer, Data Physics (Filderstadt, Germany), following an adaptation of the ASTM-[…]-08 standard. Droplets of 5.0 μL of dH2O, ejected at a rate of 2.0 μL/s, were used to measure the fibers' wettability via the sessile drop method. Six measurements were conducted per type of sample. Angles were recorded immediately after drop contact with the surface (≈10 s after contact).

[5] = tested on: Staphylococcus aureus ATCC 6538; format: cell-based; settings: ATCC 6538, 24 h
Method: Minimum inhibitory concentration (MIC) of both peptides and PEG was determined, against S. aureus and E. coli by the broth microdilution method, based on a publication by the Clinical and Laboratory Standards Institute (CLSI) and European Committee on Antimicrobial Susceptibility Testing (EUCAST). For this test, AAPV and WAAPV were dissolved in dH2O at a concentration of 4.096 mg/mL, whereas PEG was also diluted in dH2O at 10.240 mg/mL, working as stock solutions. […] Then, a bacterium suspension at 1 × 10^6 CFUs/mL was added to the wells. Controls consisting of MHB and bacteria suspensions free from any of the active agents were produced, representing the negative and positive control samples, respectively. Absorbance readings were conducted with an EZ Read 2000 Microplate Reader at 600 nm before (0 h) and 24 h after incubation at 37 °C at 120 rpm. MIC was then perceived by the differences between the several absorbance readings. Minimum bactericidal concentrations (MBCs) were established by the culture of the same bacterium suspensions at MIC and their vicinities (dilutions before and after MIC value). Aliquots were collected and diluted in PBS (10^−1–10^−4). Then, the aliquots were plated in TSA and incubated at 37 °C during 24 h, after which the grown colonies were observed and counted.

[6] = format: physicochemical; settings: not told
Method: The fibers’ capacity for air exchange (permeability) was examined according to standard ISO 9237 [24]. Air pressure of 200 Pa was applied on three samples of each typology in three randomly selected points of 1.33 cm^2 (1.30 cm diameter), and the permeability was measured. For determining the porosity (P%) of the samples [25], measurements of the amount of ethanol absorbed after 1 h of immersion in static conditions and RT (Equation (1)) were used:(1) P(%)=Ww−WD/ρEthanolVSample×100, where WW and WD are the weight of the wet and dry samples, respectively; ρethanol is the density of the ethanol at RT (0.789 g/cm^3); and Vsample is the volume of the wet sample, determined by measuring the 6 mm diameter samples’ thickness with a pachymeter. The experiment was performed in triplicate.

## CC(C)[C@H](NC(=O)[C@@H]1CCCN1C(=O)[C@H](C)NC(=O)[C@H](C)N)C(=O)O (H-AAPV-OH)
other
  main degradation step of free peptide: 200 °C

## CC(C)[C@H](NC(=O)[C@@H]1CCCN1C(=O)[C@H](C)NC(=O)[C@H](C)N)C(=O)O [AAPV, alanine–alanine–proline–valine] (H-AAPV-OH)
[1]
  time of maximum HNE inhibition: 6 h
HNE
  time of maximum HNE inhibition: 24 h
bacteria
  effective antimicrobial concentration: over 2 mg/mL
S. aureus
  S. aureus inhibitory activity: found to potentiate this inhibitory activity against S. aureus
[2]; AAPV 0.10 μg/mL
  HNE Inhibition: 0.79 ± 0.008%
[2]; AAPV 0.20 μg/mL
  HNE Inhibition: 2.37 ± 0.007%
[2]; AAPV 0.39 μg/mL
  HNE Inhibition: 3.43 ± 0.005%
[2]; AAPV 0.78 μg/mL
  HNE Inhibition: 4.07 ± 0.004%
[2]; AAPV 1.56 μg/mL
  HNE Inhibition: 6.43 ± 0.005%
[2]; AAPV 3.13 μg/mL
  HNE Inhibition: 8.07 ± 0.007%
[2]; AAPV 6.25 μg/mL
  HNE Inhibition: 8.84 ± 0.002%
[2]; AAPV 12.50 μg/mL
  HNE Inhibition: 9.56 ± 0.011%
[2]; AAPV 25.00 μg/mL
  HNE Inhibition: 12.69 ± 0.002%
[2]; AAPV 50.00 μg/mL
  HNE Inhibition: 16.89 ± 0.010%
[2]; AAPV 100.00 μg/mL
  HNE Inhibition: 9.53 ± 0.010%
[2]; AAPV 200.00 μg/mL, substrate N-MeO-Suc-Ala-Ala-Pro-Val-p-NA, 0.1 M Tris-HCl, HNE 45 mU
  HNE Inhibition: 5.74 ± 0.010%
[3]
  hydrophilicity of overall structure: hydrophilic

## CC(C)[C@H](NC(=O)[C@@H]1CCCN1C(=O)[C@H](C)NC(=O)[C@H](C)N)C(=O)O [PCL + AAPV] (H-AAPV-OH)
[4]
  mass loss before main degradation step: ~8%
  temperature at which (main) thermal degradation starts: ≈ 335 °C

## H-WAAPV-OH
other
  main degradation step of free peptide: 200 °C

## WAAPV [PCL + WAAPV]
[4]
  mass loss before main degradation step: < 4%
  temperature at which (main) thermal degradation starts: ≈ 365 °C

## WAAPV [WAAPV]
[5]
  MBC: 2.048 mg/mL
  MIC: 2.048 mg/mL

## polycaprolactone [PCL]
[4]
  mass loss before main degradation step: < 4%
  temperature at which (main) thermal degradation starts: ≈ 370 °C
  temperature range of main thermal degradation: 370-435 °C
[6]
  Air Permeability: 0.523 ± 0.057 L/min

From PMC11280037, “Inhibition of Enzyme and Bacteria Activities in Diabetic Ulcer-like Scenarios via WAAPV-Loaded Electrospun Fibers” (Pharmaceutics, 2024)
